Reference: patent publication US20240374631A1, “A COMPOSITION FOR IMPROVING GUT MICROBIOTA, BEHAVIOURAL PATTERN, ALPHA-SYNUCLEIN LEVELS, SLEEP PATTERN AND/OR SERUM MELATONIN” (GN Corporation Co Ltd, priority 2021, published 2024)

Tested on: fecal metabolome
Test: Fecal metabolome analysis (GC-MS peak height, PCA, OPLS-DA) in STAM model of NASH
Assay type: in vivo, C57BL/6J mice

In the case of `CCCc1nc2c(C)cc(-c3nc4ccccc4n3C)cc2n1Cc1ccc(-c2ccccc2C(=O)O)cc1` [Telmisartan], the “Peak height after normalization, 2-Aminobutyric acid-2TMS” value (Difference) was 17954.52, the “Peak height after normalization, 2-Hydroxyisobutyric acid-2TMS” value (Difference) was 133880.36 and the “Peak height after normalization, 3-Aminoglutaric acid-3TMS” value (Difference) was 8627.53. The “Peak height after normalization, 3-Hydroxybutyric acid-2TMS” value (Difference) was −4608.17, the “Peak height after normalization, 5-Aminovaleric acid-3TMS” value (Difference) was 26394.02 and the “Peak height after normalization, Glutamic acid-3TMS” value (Difference) was 382709.41. For the same compound, the “Peak height after normalization, Glutamine-3TMS” value (Difference) was 30745.13, the “Peak height after normalization, Glycine-3TMS” value (Difference) was 109331.29 and the “Peak height after normalization, Hypoxanthine-2TMS” value (Difference) was 23680.72. For the same compound, the “Peak height after normalization, Lactic acid-2TMS” value (Difference) was −35605.88, the “Peak height after normalization, Leucine-2TMS” value (Difference) was 267732.46 and the “Peak height after normalization, Lysine-4TMS” value (Difference) was 360841.28. For the same compound, the “Peak height after normalization, Malic acid-3TMS” value (Difference) was −16354.66, the “Peak height after normalization, Norvaline-TMS” value (Difference) was 37744.18 and the “Peak height after normalization, Phosphoric acid-3TMS” value (Difference) was 15228.48. The “Peak height after normalization, Proline-2TMS” value (Difference) was 52750.51, the “Peak height after normalization, Succinic acid-2TMS” value (Difference) was 50806.69 and the “Peak height after normalization, Taurine-3TMS” value (Difference) was 9869.33. For the same compound, the “Peak height after normalization, Tyrosine-3TMS” value (Difference) was 116635.49, the “Peak height after normalization, Uracil-2TMS” value (Difference) was −3276.22 and the “Peak height after normalization, Valine-2TMS” value (Difference) was 267808.23. The “Peak height after normalization, 2-Aminobutyric acid-2TMS” value (Post) was 43700.57, the “Peak height after normalization, 3-Aminoglutaric acid-3TMS” value (Post) was 12436.04 and the “Peak height after normalization, 3-Hydroxybutyric acid-2TMS” value (Post) was 10891.34. The “Peak height after normalization, Alanine-2TMS” value (Post) was 1268525.27, the “Peak height after normalization, Glycerol-3TMS” value (Post) was 324467.91 and the “Peak height after normalization, Glycine-3TMS” value (Post) was 288456.14. For the same compound, the “Peak height after normalization, Isoleucine-2TMS” value (Post) was 381173.16, the “Peak height after normalization, Lactic acid-2TMS” value (Post) was 36363.66 and the “Peak height after normalization, Leucine-2TMS” value (Post) was 631954.96. For the same compound, the “Peak height after normalization, Lysine-4TMS” value (Post) was 952876.14, the “Peak height after normalization, Malic acid-3TMS” value (Post) was 38544.73 and the “Peak height after normalization, Methionine-2TMS” value (Post) was 168797.44. The “Peak height after normalization, Norvaline-TMS” value (Post) was 110365.67, the “Peak height after normalization, Phenylalamine-2TMS” value (Post) was 342996.16 and the “Peak height after normalization, Phosphoric acid-3TMS” value (Post) was 122301.92. The “Peak height after normalization, Proline-2TMS” value (Post) was 151136.53, the “Peak height after normalization, Taurine-3TMS” value (Post) was 24726.77 and the “Peak height after normalization, Tryptophan-3TMS” value (Post) was 28678.00. For the same compound, the “Peak height after normalization, Uracil-2TMS” value (Post) was 71567.16, the “Peak height after normalization, Valine-2TMS” value (Post) was 521841.20 and the “Peak height after normalization, Xanthine-3TMS” value (Post) was 103194.40. For the same compound, the “Peak height after normalization, 3-Aminoglutaric acid-3TMS” value (Pre) was 3808.51, the “Peak height after normalization, 3-Hydroxybutyric acid-2TMS” value (Pre) was 15499.52 and the “Peak height after normalization, 5-Aminovaleric acid-3TMS” value (Pre) was 28517.91. The “Peak height after normalization, 5-Oxoproline-2TMS” value (Pre) was 113169.35, the “Peak height after normalization, #Sz,899;-3TMS” value (Pre) was 124526.34 and the “Peak height after normalization, Aspartic acid-3TMS” value (Pre) was 183416.60. The “Peak height after normalization, Glycerol-3TMS” value (Pre) was 283873.86, the “Peak height after normalization, Hypoxanthine-2TMS” value (Pre) was 33144.25 and the “Peak height after normalization, Isoleucine-2TMS” value (Pre) was 175687.57. For the same compound, the “Peak height after normalization, Lactic acid-2TMS” value (Pre) was 71969.33, the “Peak height after normalization, Lysine-4TMS” value (Pre) was 592034.86 and the “Peak height after normalization, Malic acid-3TMS” value (Pre) was 54899.38. For the same compound, the “Peak height after normalization, Methionine-2TMS” value (Pre) was 103825.98, the “Peak height after normalization, Norvaline-TMS” value (Pre) was 72621.50 and the “Peak height after normalization, Phenylalamine-2TMS” value (Pre) was 208441.78. For the same compound, the “Peak height after normalization, Phosphoric acid-3TMS” value (Pre) was 107073.44, the “Peak height after normalization, Succinic acid-2TMS” value (Pre) was 263097.91 and the “Peak height after normalization, Taurine-3TMS” value (Pre) was 14857.44. The “Peak height after normalization, Tryptophan-3TMS” value (Pre) was 16169.30, the “Peak height after normalization, Tyrosine-3TMS” value (Pre) was 309190.46 and the “Peak height after normalization, Uracil-2TMS” value (Pre) was 74843.38. For the same compound, the “Peak height after normalization, Valine-2TMS” value (Pre) was 254032.97 and the “Peak height after normalization, Xanthine-3TMS” value (Pre) was 101684.60.
